Source: paper PMC10252683, “Targeting USP-7 by a Novel Fluorinated 5-Pyrazolyl-Urea Derivative” (International Journal of Molecular Sciences, 2023)

Target: T1, Ubiquitin Specific Protease 7 (USP-7) (Homo sapiens, UniProt Q93009)
T1 construct: gene USP7; recombinant USP-7 (BPS Bioscience kit #79256)
Experiment: Ub-AMC fluorescence enzyme assay; supported by DARTS immunoblotting and t-LiP-MRM in HTLA-230 lysate
Format: biochemical

T1 sequence (Q93009 whole entry): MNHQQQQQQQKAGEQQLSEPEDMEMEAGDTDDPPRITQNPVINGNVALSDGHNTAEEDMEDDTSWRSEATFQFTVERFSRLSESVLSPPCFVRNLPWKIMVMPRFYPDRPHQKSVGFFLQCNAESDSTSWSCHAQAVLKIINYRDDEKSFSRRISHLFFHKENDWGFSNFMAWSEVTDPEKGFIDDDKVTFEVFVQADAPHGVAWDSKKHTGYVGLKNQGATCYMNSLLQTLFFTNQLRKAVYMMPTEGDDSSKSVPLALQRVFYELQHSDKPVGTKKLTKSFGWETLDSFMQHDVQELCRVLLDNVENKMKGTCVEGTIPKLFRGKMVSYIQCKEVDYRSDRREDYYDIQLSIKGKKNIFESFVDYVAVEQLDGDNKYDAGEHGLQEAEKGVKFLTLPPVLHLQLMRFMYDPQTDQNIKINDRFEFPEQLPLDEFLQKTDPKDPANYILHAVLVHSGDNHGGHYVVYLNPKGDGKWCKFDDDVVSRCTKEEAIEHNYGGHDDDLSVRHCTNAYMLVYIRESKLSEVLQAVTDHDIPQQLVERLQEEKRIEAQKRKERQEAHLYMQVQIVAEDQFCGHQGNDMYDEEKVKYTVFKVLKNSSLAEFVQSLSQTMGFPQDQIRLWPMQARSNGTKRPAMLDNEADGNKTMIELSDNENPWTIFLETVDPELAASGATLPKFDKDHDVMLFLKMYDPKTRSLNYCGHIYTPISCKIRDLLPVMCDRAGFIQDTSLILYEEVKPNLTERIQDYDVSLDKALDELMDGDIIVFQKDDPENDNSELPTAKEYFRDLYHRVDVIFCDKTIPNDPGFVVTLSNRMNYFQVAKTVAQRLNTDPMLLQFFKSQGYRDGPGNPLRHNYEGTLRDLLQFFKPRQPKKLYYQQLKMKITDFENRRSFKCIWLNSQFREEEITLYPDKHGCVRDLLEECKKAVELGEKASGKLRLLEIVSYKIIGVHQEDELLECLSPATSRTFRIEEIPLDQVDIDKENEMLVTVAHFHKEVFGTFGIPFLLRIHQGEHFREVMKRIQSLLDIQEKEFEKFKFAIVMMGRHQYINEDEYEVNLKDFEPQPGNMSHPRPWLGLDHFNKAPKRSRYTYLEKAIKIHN

SMILES: CCOC(=O)c1cnn(CC(C)O)c1NC(=O)Nc1cccc(F)c1 (racemic) [STIRUR 41]
- IC50: 2770 ± 560 nM
